Reference: ChEMBL document CHEMBL3352432, “Synthesis and biological evaluation of 2-anilino-4-substituted-7H-pyrrolopyrimidines as PDK1 inhibitors” (Bioorg Med Chem, 2014)

Assays:
[1] = biological target: T1, 3-phosphoinositide-dependent protein kinase 1 (Homo sapiens, UniProt O15530); assay: Inhibition of PDK1 (unknown origin) expressed in HEK293 cells using PDKtide as substrate after 10 mins by liquid scintillation counting in presence of [gamma-32P]ATP
T1 sequence (O15530 whole entry): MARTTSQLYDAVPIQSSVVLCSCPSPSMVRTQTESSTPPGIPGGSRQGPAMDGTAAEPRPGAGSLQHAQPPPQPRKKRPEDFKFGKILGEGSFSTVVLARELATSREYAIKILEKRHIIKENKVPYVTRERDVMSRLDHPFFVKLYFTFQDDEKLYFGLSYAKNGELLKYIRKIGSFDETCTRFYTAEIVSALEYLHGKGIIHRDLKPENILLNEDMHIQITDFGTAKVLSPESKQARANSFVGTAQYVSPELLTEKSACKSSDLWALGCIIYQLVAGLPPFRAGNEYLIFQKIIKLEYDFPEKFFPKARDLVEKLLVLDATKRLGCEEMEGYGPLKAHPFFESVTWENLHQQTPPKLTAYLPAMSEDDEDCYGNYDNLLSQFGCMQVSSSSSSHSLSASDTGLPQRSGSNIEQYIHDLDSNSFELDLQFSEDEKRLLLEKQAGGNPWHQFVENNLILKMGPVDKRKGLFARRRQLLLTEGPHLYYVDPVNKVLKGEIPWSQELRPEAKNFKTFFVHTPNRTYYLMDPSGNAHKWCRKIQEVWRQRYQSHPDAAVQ

[2] = biological target: T2, 3-phosphoinositide-dependent protein kinase 1 (Homo sapiens) (UniProt O15530); assay: Inhibition of PDK1 (unknown origin) expressed in HEK293 cells using PDKtide as substrate at 10 uM after 10 mins by liquid scintillation counting in presence of [gamma-32P]ATP
T2 sequence (whole entry): T1 sequence (O15530 whole entry)

| SMILES | IC50 [1] [µM] | inhibition [2] [%] |
| --- | --- | --- |
| COc1ccc(-c2nc(Nc3cccc(NC(=O)N4CCCC4)c3)nc3[nH]ccc23)cc1OC |  | 65 |
| O=C(Nc1cccc(Nc2nc(-c3ccc4c(c3)OCO4)c3cc[nH]c3n2)c1)N1CCCC1 |  | 61 |
| COc1cc(-c2nc(Nc3cccc(NC(=O)N4CCCC4)c3)nc3[nH]ccc23)cc(OC)c1OC |  | 36 |
| O=C(Nc1cccc(Nc2nc(-c3ccccc3)c3cc[nH]c3n2)c1)N1CCCC1 |  | 59 |
| O=C(Nc1cccc(Nc2nc(-c3cccc(OCc4cccnc4)c3)c3cc[nH]c3n2)c1)N1CCCC1 |  | 46 |
| COc1nc(Nc2cccc(NC(=O)N3CCCC3)c2)nc2[nH]ccc12 | 1.2 | 90 |

Continued, values first:

| IC50 [1] [µM] | inhibition [2] [%] | SMILES |
| --- | --- | --- |
| 4.9 | 70 | COc1ccc(-c2nc(Nc3cccc(NC(=O)N4CCCC4)c3)nc3[nH]ccc23)cc1 |
|  | 48 | COc1cccc(-c2nc(Nc3cccc(NC(=O)N4CCCC4)c3)nc3[nH]ccc23)c1 |
|  | 65 | COc1ccc(Oc2nc(Nc3cccc(NC(=O)N4CCCC4)c3)nc3[nH]ccc23)cc1 |
|  | 46 | O=C(Nc1cccc(Nc2nc(Nc3ccccc3)c3cc[nH]c3n2)c1)N1CCCC1 |
|  | 45 | COc1ccc(Nc2nc(Nc3cccc(NC(=O)N4CCCC4)c3)nc3[nH]ccc23)cc1 |
